This note sets out measurements from patent publication US8937091B2 (Japan Science and Technology Agency, priority 2009, dated 2015).

For assay [1], the system named is IICR (IP3 induced calcium release) in CHO cells. The assay can be described thus: Assay of IICR (IP3 induced calcium release)-inhibiting action. The following applies: for inhibition at 10 µM / inhibition at 30 µM / inhibition at 100 µM / IC50: Cricetulus griseus, CHO; for inhibition at 10 µM / inhibition at 30 µM / inhibition at 100 µM / IICR level (percentage of inhibition): CHO cells, 10 μM ATP; for inhibition at 10 µM / inhibition at 30 µM / inhibition at 100 µM: read-out: IICR level (percentage of inhibition); for IC50: Table 1. Type of assay: cell-based, Chinese hamster. Here is the method: The extracellular fluid (i.e., medium) of cultured CHO cells was replaced by BSS containing calcium. One minute later, a test compound was added. Two minutes later, 10 μM ATP was added. The IICR-inhibiting action levels at different compound concentrations after the addition of ATP were determined as the percentage of inhibition (%) by evaluating the influence of the compound on the degree of increase in the intracellular calcium concentration.
(§1) Hereafter, the numerals in parentheses written after the TG level, the SOCE level, and the IICR level correspond to the test compound concentrations. The number following the name of each title compound used in the Examples below represents a compound ID number designated arbitrarily by the present inventors.

For assay [2], the system named is SOCE (store operated calcium entry) in CHO cells. In words: Assay of SOCE (store operated calcium entry)-inhibiting action. The class given is cell-based, Chinese hamster. The following applies: for inhibition at 10 µM / inhibition at 30 µM / inhibition at 100 µM / IC50: Cricetulus griseus, CHO; for inhibition at 10 µM / inhibition at 30 µM / inhibition at 100 µM / SOCE level (percentage of inhibition): CHO cells, thapsigargin; for inhibition at 10 µM / inhibition at 30 µM / inhibition at 100 µM: read-out: SOCE level (percentage of inhibition); for IC50: Table 1. How it is done: The extracellular fluid (i.e., medium) of cultured Chinese hamster ovary (CHO) cells was replaced by BSS containing no calcium. One minute later, a test compound was added. Two minutes later, 1 μM thapsigargin was added to cause depletion of the intracellular calcium store. Nine minutes later, calcium chloride (final concentration: 2 mM) was added to the extracellular fluid. The SOCE-inhibiting action levels at different compound concentrations after the addition of calcium chloride were determined as the percentage of inhibition (%) by evaluating the influence of the compound on the degree of increase in the intracellular calcium concentration.
as §1

Where only a bound is given, the exact number is not on record here.

With `CN(CCO)CCC(=O)c1ccc2ccccc2c1` [Example 100, 2-(N-methylhydroxyethyl)aminoethyl-2-naphthylketone], the inhibition at 10 µM in assay [1] (test compound 10 μmol) and in assay [2] (test compound 10 μmol) was 0% each time. Moreover, the inhibition at 30 µM in assay [1] (test compound 30 μmol) and in assay [2] (test compound 30 μmol) was 0% throughout. Also, the inhibition at 100 µM came out at 60% in assay [1] (test compound 100 μmol) and 20% in assay [2] (test compound 100 μmol).
For `O=C(CCN(CCO)CCO)c1cnccn1` [Example 102, N,N-bis(2-hydroxyethyl)aminoethyl-2-pyrazylketone], the inhibition at 10 µM in assay [1] (test compound 10 μmol) and in assay [2] (test compound 10 μmol) was 0% each time. The inhibition at 30 µM in assay [1] (test compound 30 μmol) amounted to 20%; in assay [2] (test compound 30 μmol) it was 0%. The figures for the inhibition at 100 µM in assay [1] (test compound 100 μmol) and in assay [2] (test compound 100 μmol) were 100% and 0%, respectively.
Consider `CC(C)N(CCC(=O)c1ccc(Cc2ccccc2)cc1)Cc1ccccc1` [Example 103, 2-(N-isopropylbenzyl)aminoethyl-4-benzylphenylketone], for which the “IICR level (percentage of inhibition)” value was found to be 80% in assay [1] (test compound 10 μmol), 80% in assay [1] (test compound 30 μmol) and 100% in assay [1] (test compound 100 μmol). The “SOCE level (percentage of inhibition)” value in assay [2] (test compound 10 μmol) is reported as 10%; in assay [2] (test compound 30 μmol), 50%; in assay [2] (test compound 100 μmol), 60%.
With `CN(CCC(=O)c1ccc(Cc2ccccc2)cc1)Cc1ccccc1` [Example 104, 2-(N-methylbenzyl)aminoethyl-4-benzylphenylketone], the inhibition at 10 µM came to 40% in assay [1] (test compound 10 μmol) and 0% in assay [2] (test compound 10 μmol). Also, the values for the inhibition at 30 µM in assay [1] (test compound 30 μmol) and in assay [2] (test compound 30 μmol) were 20% and 10%, respectively. The inhibition at 100 µM was determined as 90% in assay [1] (test compound 100 μmol) and 70% in assay [2] (test compound 100 μmol).
For `CC(C)(C)N(CCC(=O)c1ccc(Cc2ccccc2)cc1)Cc1ccccc1` [Example 105, 2-(N-t-butylbenzyl)aminoethyl-4-benzylphenylketone], the inhibition at 10 µM in assay [1] (test compound 10 μmol) amounted to 40%; in assay [2] (test compound 10 μmol) it was 0%. Besides, the inhibition at 30 µM stood at 70% in assay [1] (test compound 30 μmol) and 20% in assay [2] (test compound 30 μmol). Further, the inhibition at 100 µM in assay [1] (test compound 100 μmol) was 90%; in assay [2] (test compound 100 μmol), 40%.
Consider `CC(C)N(CCC(=O)c1cccnc1)Cc1ccccc1` [Example 106, 2-(N-isopropylbenzyl)aminoethyl-3-pyridylketone], for which the results for the inhibition at 10 µM in assay [1] (test compound 10 μmol) and in assay [2] (test compound 10 μmol) were 90% and 0%, respectively. The inhibition at 30 µM in assay [1] (test compound 30 μmol) is 90%; in assay [2] (test compound 30 μmol), 0%. Also, the values for the inhibition at 100 µM in assay [1] (test compound 100 μmol) and in assay [2] (test compound 100 μmol) were 100% and 0%, respectively. In addition, the IC50 is less than 10 µM in assay [1] and more than 100 µM in assay [2].
On to `CC(C)N(CCC(=O)c1ccncc1)Cc1ccccc1` [Example 107, 2-(N-isopropylbenzyl)aminoethyl-4-pyridylketone], for which the inhibition at 10 µM in assay [1] (test compound 10 μmol) is 30%; in assay [2] (test compound 10 μmol), 0%. The inhibition at 30 µM in assay [1] (test compound 30 μmol) was 90%; in assay [2] (test compound 30 μmol) it was 20%. Moreover, the inhibition at 100 µM in assay [1] (test compound 100 μmol) is 90%; in assay [2] (test compound 100 μmol), 30%. Also, the results for the 50% inhibitory concentration (IC50) in assay [1] and in assay [2] were less than 10 µM and more than 100 µM, respectively.
Consider `CCCCN(CCO)CCC(=O)c1cnccn1` [Example 108, 2-(N-butyl-2-hydroxyethyl)aminoethyl-2-pyrazinylketone], for which the inhibition at 10 µM in assay [1] (test compound 10 μmol) and in assay [2] (test compound 10 μmol) was 0% in each case. Moreover, the figures for the inhibition at 30 µM in assay [1] (test compound 30 μmol) and in assay [2] (test compound 30 μmol) were 10% and 0%, respectively. Moreover, the inhibition at 100 µM in assay [1] (test compound 100 μmol) worked out at 80%; in assay [2] (test compound 100 μmol), 0%.
Take `CC(C)N(CCC(=O)c1ccco1)Cc1ccccc1` [Example 109, 2-(N-isopropylbenzyl)aminoethyl-2-furylketone]: the values for the inhibition at 10 µM in assay [1] (test compound 10 μmol) and in assay [2] (test compound 10 μmol) were 20% and 0%, respectively. Also, the inhibition at 30 µM in assay [1] (test compound 30 μmol) came to 90%; in assay [2] (test compound 30 μmol) it was 0%. The inhibition at 100 µM in assay [1] (test compound 100 μmol) amounted to 70%; in assay [2] (test compound 100 μmol), 10%.
Regarding `CC(C)N(CCC(=O)c1ccc[nH]1)Cc1ccccc1` [Example 110, 2-(N-isopropylbenzyl)aminoethyl-2-pyrroleketone], the inhibition at 10 µM in assay [1] (test compound 10 μmol) came to 20%; in assay [2] (test compound 10 μmol) it was 0%. Further, the inhibition at 30 µM was determined as 40% in assay [1] (test compound 30 μmol) and 0% in assay [2] (test compound 30 μmol). Further, the inhibition at 100 µM in assay [1] (test compound 100 μmol) is 100%; in assay [2] (test compound 100 μmol) it was 0%.
As for `CCN(CCC(=O)c1cnccn1)Cc1ccccc1` [Example 111, 2-(N-ethylbenzyl)aminoethyl-2-pyrazinylketone], the inhibition at 10 µM in assay [1] (test compound 10 μmol) was found to be 30%; in assay [2] (test compound 10 μmol), 0%. Besides, the inhibition at 30 µM in assay [1] (test compound 30 μmol) worked out at 80%; in assay [2] (test compound 30 μmol), 0%. The inhibition at 100 µM worked out at 95% in assay [1] (test compound 100 μmol) and 0% in assay [2] (test compound 100 μmol).
As to `O=C(CCNCCS)c1ccc(Oc2ccccc2)cc1` [Example 112, 2-(N-mercaptoethyl)aminoethyl-4-phenoxyphenylketone], the inhibition at 10 µM in assay [1] (test compound 10 μmol) stood at 20%; in assay [2] (test compound 10 μmol), 0%. Moreover, the inhibition at 30 µM in assay [1] (test compound 30 μmol) was found to be 30%; in assay [2] (test compound 30 μmol), 0%. Besides, the inhibition at 100 µM in assay [1] (test compound 100 μmol) came out at 40%; in assay [2] (test compound 100 μmol), 30%.
On to `O=C(CCNCCC1=NCN=C1)c1ccc(Oc2ccccc2)cc1` [Example 113], for which the inhibition at 10 µM came out at 70% in assay [1] (test compound 10 μmol) and 0% in assay [2] (test compound 10 μmol). Moreover, the inhibition at 30 µM is 90% in assay [1] (test compound 30 μmol) and 10% in assay [2] (test compound 30 μmol). The inhibition at 100 µM in assay [1] (test compound 100 μmol) turned out to be 100%; in assay [2] (test compound 100 μmol) it was 40%.
For the molecule `CCCCN(CCO)CCC(=O)c1ccc(Oc2ccccc2)cc1` [Example 114, 2-(N-hydroxyethylbutyl)aminoethyl-4-phenoxyphenylketone], the inhibition at 10 µM came out at 70% in assay [1] (test compound 10 μmol) and 0% in assay [2] (test compound 10 μmol). For the same molecule, the results for the inhibition at 30 µM in assay [1] (test compound 30 μmol) and in assay [2] (test compound 30 μmol) were 100% and 10%, respectively. In addition, the figures for the inhibition at 100 µM in assay [1] (test compound 100 μmol) and in assay [2] (test compound 100 μmol) were 30% and 40%, respectively.
`O=C(CCN1CCN(C(=O)c2ccco2)CC1)c1ccc(Oc2ccccc2)cc1` [Example 115, 2-(N-furoylpiperazyl)aminoethyl-4-phenoxyphenylketone]: the inhibition at 10 µM in assay [1] (test compound 10 μmol) was determined as 20%; in assay [2] (test compound 10 μmol), 0%. Besides, the inhibition at 30 µM in assay [1] (test compound 30 μmol) was determined as 20%; in assay [2] (test compound 30 μmol), 0%. Moreover, the inhibition at 100 µM in assay [1] (test compound 100 μmol) stood at 20%; in assay [2] (test compound 100 μmol), 30%.
`CCN(CC)CCC(=O)c1ccc(Oc2ccccc2)cc1` [Example 116, 2-(N-diethyl)aminoethyl-4-phenoxyphenylketone]: the figures for the inhibition at 10 µM in assay [1] (test compound 10 μmol) and in assay [2] (test compound 10 μmol) were 20% and 0%, respectively. Besides, the figures for the inhibition at 30 µM in assay [1] (test compound 30 μmol) and in assay [2] (test compound 30 μmol) were 20% and 0%, respectively. The inhibition at 100 µM in assay [1] (test compound 100 μmol) was 70%; in assay [2] (test compound 100 μmol) it was 20%.
Take `CC(C)N(CCC(=O)c1cnccn1)Cc1ccccc1` [Example 117, 2-(N-isopropylbenzyl)aminoethyl-2-pyrazylketone]: the inhibition at 10 µM in assay [1] (test compound 10 μmol) was 20%; in assay [2] (test compound 10 μmol), 0%. The inhibition at 30 µM in assay [1] (test compound 30 μmol) came out at 50%; in assay [2] (test compound 30 μmol), 0%. In addition, the inhibition at 100 µM came out at 90% in assay [1] (test compound 100 μmol) and 0% in assay [2] (test compound 100 μmol). The IC50 in assay [1] was 30 µM; in assay [2], more than 100 µM.

As usually defined, the inhibition is the percentage by which the read-out fell short of the control. As a reminder, the IC50 is the concentration that gives 50% inhibition.
